From patent US20030086928A1, “Compositions associated with complex formation and methods of use thereof” (priority 2000, published 2003) come the findings set out here.

The subject of test [1] is somatostatin mRNA in D5 cells. The test is described as follows: Northern blot of somatostatin mRNA in D5 cells. Format: cell-based, rat. Particulars: 4 hours. From the text: In addition to cAMP, other stimuli such as the phorbol ester TPA can promote Ser133 phosphorylation of CREB; yet these stimuli are unable to induce target gene activation via CBP, reflecting either a block in CREB:CBP complex formation or in the subsequent recruitment of the transcriptional apparatus. To evaluate formation of CREB:CBP complexes in vivo, NIH 3T3 cells expressing chromosomal copies of the rat somatostatin gene, hereafter referred to as D5 cells (Montminy et al. (1986) J Neurosci 6:803-813) were used. […] Western blot assays of total CREB and phospho (Ser133) CREB (P-CREB) levels were performed in control (C) or treated D5 cells exposed to either forskolin (F) or TPA (T) for 30 minutes. Northern blot assays were then performed to detect somatostatin (SOM) and tubulin (TUB) mRNA levels in control D5 cells (C) and in D5 cells treated with forskolin (F) or TPA (T) for 4 hours.

In test [2] the test system is T1, CREB:CBP complexes in D5 cells.
T1 construct: endogenous in cells; host or cells: D5 cells (NIH 3T3 with rat somatostatin gene)
The test is described as follows: Immunofluorescence of CREB:CBP complexes in D5 cells with αKK antiserum. The class given is cell-based. Particulars: 10 minutes. On the procedure: (§1) D5 cells were grown on glass coverslips and stimulated with forskolin and 3-isobutyl-1-methylxanthine (IBMX) or 12-O-tetradecanoyl phorbol acetate (TPA) for 10 minutes. The cells were methanol-fixed at […] for 5 min followed by three 5 min washes in PBS. Cells were blocked for 30 min with 3% BSA in PBS and donkey serum diluted 1:50. Primary antibodies were diluted in 3% BSA/PBS to 1:2000 for the phospho-CREB specific antibody 5322 or 1:100 (3 μg/ml) for the KID/KIX specific antibody. The cells were incubated with the primary antibodies for 1 hr at RT, followed by 3 washes with PBS and a 1 hr incubation with Biotin-SP-conjugated Donkey anti rabbit IgG diluted 1:200 in 3% BSA/PBS. After 3 washes in PBS, Texas Red conjugated Streptavidin was added at 1:200 dilution in 3% BSA/PBS. After one hour incubation, cells were washed 3 times in PBS and mounted in 90% glycerol/PBS containing 1 mg/ml phenylenediamine.
D5 cells were then treated with forskolin or TPA for 10 minutes.

Test [3] relates to phospho (Ser133) CREB in D5 cells. The test is described as follows: Ser133 phosphorylation of CREB in D5 cells (Western blot / immunofluorescence with antiserum 5322). Format: cell-based. Here is the method: as §1
In addition to cAMP, other stimuli such as the phorbol ester TPA can promote Ser133 phosphorylation of CREB; yet these stimuli are unable to induce target gene activation via CBP, reflecting either a block in CREB:CBP complex formation or in the subsequent recruitment of the transcriptional apparatus. […]

T1 sequence (Q01147 whole entry): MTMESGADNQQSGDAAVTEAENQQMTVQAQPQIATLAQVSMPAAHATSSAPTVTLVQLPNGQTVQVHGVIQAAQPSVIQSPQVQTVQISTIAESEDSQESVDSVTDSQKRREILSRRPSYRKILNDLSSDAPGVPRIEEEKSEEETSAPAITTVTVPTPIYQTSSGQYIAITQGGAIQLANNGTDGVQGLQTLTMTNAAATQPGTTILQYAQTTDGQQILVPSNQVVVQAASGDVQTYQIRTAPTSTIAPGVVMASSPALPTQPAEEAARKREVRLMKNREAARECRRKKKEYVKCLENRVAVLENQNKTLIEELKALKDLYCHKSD
T1 sequence (P45481 2-2441 limits assumed, further chain): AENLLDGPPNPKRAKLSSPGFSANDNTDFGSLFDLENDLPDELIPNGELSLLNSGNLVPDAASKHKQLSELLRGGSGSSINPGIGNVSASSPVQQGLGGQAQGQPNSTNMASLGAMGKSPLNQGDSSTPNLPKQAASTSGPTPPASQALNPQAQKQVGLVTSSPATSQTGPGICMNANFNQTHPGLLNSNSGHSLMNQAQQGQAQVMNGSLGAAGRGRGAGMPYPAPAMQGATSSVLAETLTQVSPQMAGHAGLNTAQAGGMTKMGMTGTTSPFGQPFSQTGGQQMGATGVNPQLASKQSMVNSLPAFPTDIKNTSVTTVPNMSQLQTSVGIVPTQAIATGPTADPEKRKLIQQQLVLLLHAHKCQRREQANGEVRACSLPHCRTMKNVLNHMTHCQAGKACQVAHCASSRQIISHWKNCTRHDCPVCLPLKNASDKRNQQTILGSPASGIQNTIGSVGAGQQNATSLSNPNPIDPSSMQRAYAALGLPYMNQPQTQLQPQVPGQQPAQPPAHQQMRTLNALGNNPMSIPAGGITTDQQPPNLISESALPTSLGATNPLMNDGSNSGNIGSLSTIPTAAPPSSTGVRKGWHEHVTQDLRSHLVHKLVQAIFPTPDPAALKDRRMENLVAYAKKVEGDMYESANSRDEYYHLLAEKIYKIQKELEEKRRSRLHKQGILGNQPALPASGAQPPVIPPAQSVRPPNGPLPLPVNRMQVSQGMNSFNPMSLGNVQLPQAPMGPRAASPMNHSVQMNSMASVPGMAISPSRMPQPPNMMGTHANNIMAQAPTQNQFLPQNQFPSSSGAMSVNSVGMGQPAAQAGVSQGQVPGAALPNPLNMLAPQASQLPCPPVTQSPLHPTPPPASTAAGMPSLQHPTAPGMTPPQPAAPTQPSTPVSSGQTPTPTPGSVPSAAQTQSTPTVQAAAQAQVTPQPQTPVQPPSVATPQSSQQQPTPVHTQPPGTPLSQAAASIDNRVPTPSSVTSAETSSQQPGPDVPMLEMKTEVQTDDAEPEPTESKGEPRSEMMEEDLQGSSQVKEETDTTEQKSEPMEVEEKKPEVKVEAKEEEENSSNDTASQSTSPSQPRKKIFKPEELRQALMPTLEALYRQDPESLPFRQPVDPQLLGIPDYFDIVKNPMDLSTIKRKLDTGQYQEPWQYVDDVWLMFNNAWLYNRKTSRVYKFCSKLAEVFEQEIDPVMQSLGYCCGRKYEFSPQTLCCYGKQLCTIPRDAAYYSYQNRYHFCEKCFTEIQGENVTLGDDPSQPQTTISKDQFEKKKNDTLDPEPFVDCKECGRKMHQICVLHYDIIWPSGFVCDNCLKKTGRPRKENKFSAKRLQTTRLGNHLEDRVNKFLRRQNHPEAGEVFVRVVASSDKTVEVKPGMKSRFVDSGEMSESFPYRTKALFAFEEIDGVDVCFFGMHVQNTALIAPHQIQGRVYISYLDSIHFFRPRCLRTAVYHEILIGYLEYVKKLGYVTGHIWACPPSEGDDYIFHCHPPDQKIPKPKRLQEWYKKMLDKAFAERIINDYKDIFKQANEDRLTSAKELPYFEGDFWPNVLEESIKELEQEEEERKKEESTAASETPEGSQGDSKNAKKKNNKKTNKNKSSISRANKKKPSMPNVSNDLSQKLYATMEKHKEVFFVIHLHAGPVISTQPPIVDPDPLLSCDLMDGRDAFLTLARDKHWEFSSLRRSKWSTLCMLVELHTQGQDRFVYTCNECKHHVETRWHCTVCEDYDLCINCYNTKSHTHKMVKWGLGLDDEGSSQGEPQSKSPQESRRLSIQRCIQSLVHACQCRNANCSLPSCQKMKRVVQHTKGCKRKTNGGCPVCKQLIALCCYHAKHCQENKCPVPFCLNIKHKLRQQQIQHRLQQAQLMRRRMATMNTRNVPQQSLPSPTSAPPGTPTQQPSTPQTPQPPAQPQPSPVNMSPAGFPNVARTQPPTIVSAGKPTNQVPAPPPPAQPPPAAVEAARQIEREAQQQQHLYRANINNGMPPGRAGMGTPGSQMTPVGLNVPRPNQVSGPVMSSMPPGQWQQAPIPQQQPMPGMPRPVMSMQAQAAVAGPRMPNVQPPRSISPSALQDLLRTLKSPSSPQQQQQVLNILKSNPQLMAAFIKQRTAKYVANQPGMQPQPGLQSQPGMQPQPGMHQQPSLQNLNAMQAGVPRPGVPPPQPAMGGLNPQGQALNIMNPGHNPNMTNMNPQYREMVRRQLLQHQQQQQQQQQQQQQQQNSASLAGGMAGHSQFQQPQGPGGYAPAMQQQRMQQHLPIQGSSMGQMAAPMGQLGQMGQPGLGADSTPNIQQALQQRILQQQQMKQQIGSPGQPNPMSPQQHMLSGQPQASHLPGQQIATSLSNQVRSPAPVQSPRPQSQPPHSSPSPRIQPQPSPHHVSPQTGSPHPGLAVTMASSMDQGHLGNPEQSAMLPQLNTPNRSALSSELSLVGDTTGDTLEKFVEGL

Regarding `C=C[C@@]1(C)CC(=O)[C@]2(O)[C@@]3(C)[C@@H](O)CCC(C)(C)[C@@H]3[C@H](O)[C@H](OC(C)=O)[C@@]2(C)O1` [forskolin], the “somatostatin mRNA accumulation” value in test [1] came to 5 fold.

For the molecule `CCCCCCCCCCCCCC(=O)O[C@@H]1[C@@H](C)[C@@]2(O)[C@@H](C=C(CO)C[C@]3(O)C(=O)C(C)=C[C@@H]23)[C@@H]2C(C)(C)[C@]12OC(C)=O` [TPA, 12-O-tetradecanoyl phorbol acetate], the “somatostatin mRNA accumulation” value in test [1] was “no discernible effect”. Besides, the “CREB:CBP complex formation detected with αKK antiserum” value in test [2] is “no CREB:CBP complexes were detected”. Further, the “accumulation of phospho (Ser133) CREB” value in test [3] (10 minutes, immunofluorescence) is “comparable levels of Ser133 phosphorylation”. In addition, in test [3] (30 minutes, Western blot with antiserum 5322), the “Ser133 phosphorylation of CREB” value was “induced Ser133 phosphorylation of CREB with comparable stoichiometry to forskolin induction”.
